In paper PMC6362118, “Pharmacophore-guided discovery of CDC25 inhibitors causing cell cycle arrest and tumor regression” (Scientific Reports, 2019):

Key:
[1] = set-up: method as in PMID 17970046; conditions: due to rapid metabolism; cited from earlier work
HeLa cells [2] = experiment: Cell viability assay on HeLa cells; format: cell-based; conditions: 48h treatment
Description: (§1) 75 Cell culture - Wild-type HeLa and Kyoto HeLa cells stably expressing mCherry-H2B
(§2) 76 were maintained in DMEM+L-Glutamine (Gibco, Life Technologies, USA)
(§3) 77 supplemented with 5% fetal calf serum (FCS) (Gibco) and penicillin-streptomycin (100
78 U/ml - 100 µg/ml) (Gibco). […]
87 Cell viability assays - Compounds viability upon 48h treatment with the compounds was
88 assessed as described 4. Data were plotted with Prism 7® and analyzed by non-linear
89 regression. Comparison of single curve fitting to all data set within an experiment was
90 performed with the extra sum-of-squares F-test to determine P values. […]

CDC25A = molecular target: T1, CDC25A (Homo sapiens, UniProt P30304); experiment: Enzymatic assay (OMFP substrate) on recombinant CDC25A; format: biochemical
T1 construct: GST (pGEX vector) (N); made in house; host or cells: E. coli BL21
T1 sequence (P30304 1-524): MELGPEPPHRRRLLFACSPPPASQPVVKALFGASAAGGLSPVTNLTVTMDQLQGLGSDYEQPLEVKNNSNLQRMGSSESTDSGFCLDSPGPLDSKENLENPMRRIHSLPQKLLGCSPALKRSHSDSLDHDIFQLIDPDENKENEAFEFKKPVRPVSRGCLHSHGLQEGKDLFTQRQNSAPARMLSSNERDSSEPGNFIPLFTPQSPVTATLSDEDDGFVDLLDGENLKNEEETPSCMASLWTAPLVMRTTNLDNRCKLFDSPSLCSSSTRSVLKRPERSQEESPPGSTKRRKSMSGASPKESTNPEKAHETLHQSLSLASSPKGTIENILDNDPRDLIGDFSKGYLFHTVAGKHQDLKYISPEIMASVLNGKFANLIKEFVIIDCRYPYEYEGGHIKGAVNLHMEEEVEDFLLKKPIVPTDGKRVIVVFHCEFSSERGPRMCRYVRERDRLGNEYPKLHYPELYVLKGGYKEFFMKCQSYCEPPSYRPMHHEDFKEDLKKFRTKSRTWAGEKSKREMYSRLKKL
Description: 57 UPD compounds were dissolved in DMSO at 10 mM stock concentration and stored in
60 Expression and purification of CDC25 phosphatases - CDC25A (kind gift of I.
61 Hoffmann, Heidelberg, Germany), CDC25B and CDC25C (kind gift of B. Gabrielli,
62 Queensland, Australia) in pGEX were expressed in E. coli BL21 cells and purified on 1
63 ml Glutathione Sepharose 4 Fast Flow columns as described 1.
(§4) 65 Enzymatic assays - CDC25A, CDC25B and CDC25C were appropriately diluted in 10
(§5) 66 mM Tris-HCl pH 8.0, 50 mM NaCl and assayed in 20 mM Tris-HCl pH 8.0, 75 mM
(§6) 67 NaCl, 0.5 mM EGTA, 1 mM DTT, 0.1 mg/ml BSA and defined concentrations of
(§7) 68 compounds. Reactions were started by addition of the substrate OMFP (0.1 mM). Assays
(§8) 69 were carried out at room temperature in duplicate or triplicate using transparent-bottom,
(§9) 70 V-shaped 96 well plates and read at defined intervals on a Molecular Devices
(§10) 71 SpectraMax microplate reader (ex: 490 nm / em: 525 nm). IC50 and kinetic parameters
(§11) 72 calculated from Lineweaver-Burk double-reciprocal plots of the data were obtained using
73 GraphPad Prism software. […]

HeLa cells [3] = experiment: Time-lapse microscopy of mitosis in synchronized HeLa cells; format: cell-based
Description: Cells were grown in 35 mm CellView™ cell culture dishes with glass bottom (# 627870, Greiner-BioOne) at a density of 2.5 × 10^5 cells/ml in a humidified cell incubator maintained at 37 °C and 5% CO2. Cell were viewed by phase contrast microscopy with a 10x objective using an Olympus IX 81 motorized inverted microscope (Olympus, Hamburg, Germany) equipped with external temperature control chamber and CO2 bottle to maintain cells at 37 °C with 5% CO2. Transition through mitosis was documented by acquisition of four frames per hour over a period of 14 h using a CCD camera (Orca AG, Hamamatsu) and cellR® software (Olympus). HeLa-Kyoto cells (mCherry-H2B/EGFP-α-tubulin) were visualized by fluorescence microscopy with an Olympus IX 81 microscope using a 10x objective and selecting Ex. = 492 ± 18 nm/Em. = 535 ± 50 nm for the green channel and Ex. = 572 ± 23 nm/Em. = 645 ± 75 nm for the red channel.

[4] = tested on: U2OS Tet-OFF cells expressing HA-CDC25A; experiment: Cell viability of U2OS Tet-OFF cells overexpressing HA-CDC25A; format: cell-based; conditions: grown in the absence of tetracycline (HA-CDC25A induced)
Description: as §4, §5, §6, §7, §8, §9, §10, §11
73 GraphPad Prism software.
as §1, §2, §3
78 U/ml - 100 µg/ml) (Gibco). A549 and Colo741 were grown and maintained like HeLa
79 cells but with 10% FCS. HCT116 were maintained in McCoy’s medium supplemented
80 with 10% FCS and penicillin-streptomycin. U2OS-Tet-OFF cells expressing HA-CDC25
81 were grown and maintained in DMEM+L-Glutamine, 10% Tet-free FCS and penicillin- […]
88 assessed as described 4. Data were plotted with Prism 7® and analyzed by non-linear […]

HeLa cells [5] = experiment: Flow cytometric analysis of cell cycle progression (DNA content) in HeLa cells; format: cell-based
Description: Reactions were started by addition of the substrate OMFP (0.1 mM). Assays 69 were carried out at room temperature in duplicate or triplicate using transparent-bottom, 70 V-shaped 96 well plates and read at defined intervals on a Molecular Devices 71 SpectraMax microplate reader (ex: 490 nm / em: 525 nm). IC50 and kinetic parameters 72 calculated from Lineweaver-Burk double-reciprocal plots of the data were obtained using 73 GraphPad Prism software. 74 75 Cell culture - Wild-type HeLa and Kyoto HeLa cells stably expressing mCherry-H2B 76 were maintained in DMEM+L-Glutamine (Gibco, Life Technologies, USA) 77 supplemented with 5% fetal calf serum (FCS) (Gibco) and penicillin-streptomycin (100 […] A549 and Colo741 were grown and maintained like HeLa 79 cells but with 10% FCS. HCT116 were maintained in McCoy's medium supplemented 80 with 10% FCS and penicillin-streptomycin. U2OS-Tet-OFF cells expressing HA-CDC25 81 were grown and maintained in DMEM+L-Glutamine, 10% Tet-free FCS and penicillin- 82 streptomycin in the presence or the absence of 4 μg/ml tetracycline (Sigma, T7660). 83 84 Cell synchronization - Cell synchronization was performed by double thymidine block- 85 release protocol 2 or nocodazole treatment 3 and verified by flow cytometry. 86 87 Cell viability assays - Compounds viability upon 48h treatment with the compounds was 88 assessed as described 4. Data were plotted with Prism 7® and analyzed by non-linear 89 regression. Comparison of single curve fitting to all data set within an experiment was 90 performed with the extra sum-of-squares F-test to determine P values. 91 92 Western blotting - Cell lysis and immunoblot analysis were performed as previously 93 described 5. […] Cells were washed with PBS, resuspended […] To 100 quantify phosphorylation of CDK1 at Tyr15 and H2AX at S139, cells were harvested and 101 examined as described 6. Samples were measured on an AttuneTM NxT Cytometer 102 (ThermoFisher Scientific, Carlsbad, CA, USA) and data were analyzed with FlowJo® 103 software v10 (FlowJo, LLC, Ashland, OR, USA). 104 105 Real Time qRT-PCR - Organoids were lysed in Tri-Reagent (Sigma) as previously 106 described 7 and total RNA was isolated as described by manufacturer's instructions. For […] 108 High Fidelity cDNA Synthesis kit (Roche). Real-time quantitative PCR reactions were 109 performed in three independent biological replicates, each with technical triplicate, using 110 the Applied Biosystems SYBR Green Kit and monitored by the ABI Prism 7900HT 111 system (Applied Biosystem). The following primers were used: 112 Lgr5: Forward [NT] and Reverse 5'- […] 114 Lysozyme: Forward [NT] and Reverse 5'- 115 [NT]3' 116 Cryptdin: Forward [NT] and Reverse 5'- 117 [NT]-binding protein (TBP): Forward [NT] and 119 Reverse [NT] 120 […] 122 amplification curves and the melting temperature analysis of the final amplification […] 4

| IC50 (HeLa cells [2]) | mode of action (reversibility) (CDC25A; pre-incubation at ~3x IC50 (5 μM UPDs, 2 µM NSC663284), 10-fold dilution) | IC50 (HeLa cells [2]; Homo sapiens) | remaining activity at 20 µM (CDC25A; compound 20 µM, relative to DMSO control, read-out: % remaining activity ± SD (Table S2, second round of selection)) | Structure (SMILES) | antitumor activity in mice [1] | execution of mitosis (time-lapse) (HeLa cells [3]; HeLa, 10 μM added 5 h upon release from 2x thymidine block, monitored 14 h) | execution of mitosis at low dose (time-lapse) (HeLa cells [3]; synchronized HeLa Kyoto cells (mCherry-H2B, GFP-α-tubulin), 5 μM) | sensitivity of CDC25A overexpressing cells (viability) [4] | effect on cell cycle distribution (DNA content) (HeLa cells [5]; asynchronous HeLa cells, 10 μM, 15 h) | effect on the G2/M transition (HeLa cells [5]; double-thymidine synchronized HeLa, 10 μM added 5 h upon release, analysed 12 h post-release) |
| --- | --- | --- | --- | --- | --- | --- | --- | --- | --- | --- |
| 2570 nM | irreversible |  |  | O=C1C(Cl)=C(NCCN2CCOCC2)C(=O)c2ncccc21 [NSC-663284, reference compound] | minimal antitumor activity |  |  |  |  |  |
|  |  | 900 nM | 0.1 ± 0.3% | Cc1c(O)ccc(C2=CC(=O)c3cccc(O)c3C2=O)c1O [UPD-787, 8-hydroxy-2-(2,4-dihydroxy-3-methylphenyl) naphthalene-1,4-dione] |  | could not complete mitotic transition and died before reaching G1 | failed attempt to round up and execute mitosis, which was followed by membrane blebbing and death | remained sensitive | accumulation of cells at G2/M | accretion of the G2/M peak |
